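Test compounds were applied to cells in 96-well plates for 48 hours at 5 doses. GI50 marks 50% less growth.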 Active and inactive are the calls of the source. No stated cut-off is given here; in the data, active = GI50 up to about 1.1 µM and inactive = higher.
Columns and labels:
Test in all cases: inhibition of tumour cell growth, NCI panel, 48 h
[1] = tested on: A498
[2] = tested on: U-251
[3] = tested on: HT-29
[4] = tested on: NCI-H23
[5] = tested on: RPMI-8226
[6] = tested on: RXF 393
[7] = tested on: SF-295
[8] = tested on: SW-620
[9] = tested on: KM12
[10] = tested on: HOP-92
[11] = tested on: SK-MEL-2
[12] = tested on: NCI-H460
[13] = tested on: TK-10
[14] = tested on: IGROV-1
[15] = tested on: CAKI-1
[16] = tested on: OVCAR-5
[17] = tested on: Malme-3M
[18] = tested on: SF-268
[19] = tested on: DU-145
[20] = tested on: SK-MEL-5

SMILES | GI50 [1] | GI50 [2] | GI50 [3] | GI50 [4] | GI50 [5] | GI50 [6] | GI50 [7] | GI50 [8] | GI50 [9] | GI50 [10] | GI50 [11] | GI50 [12] | GI50 [13] | GI50 [14] | GI50 [15] | GI50 [16] | GI50 [17] | GI50 [18] | GI50 [19] | GI50 [20]
C/C(=N\Nc1ccc([N+](=O)[O-])cc1)C(=O)N(C)Nc1ccccc1 | 29 µM (inactive) | 62.1 µM (inactive) | 66.8 µM (inactive) | 58.5 µM (inactive) | 76 µM (inactive) | 58.1 µM (inactive) | 34.5 µM (inactive) | > 100 µM (inactive) | 24 µM (inactive) | 53.7 µM (inactive) | 29.1 µM (inactive) | 47.1 µM (inactive) | 64.3 µM (inactive) | 58.9 µM (inactive) |  |  |  |  |  | 
CNC(=S)N/N=C(C)\C(=N/NC(=S)NC)c1ccccc1 |  |  |  | > 100 µM (inactive) |  | 56.8 µM (inactive) | 34.4 µM (inactive) |  | 64.9 µM (inactive) |  |  | 25.7 µM (inactive) | > 100 µM (inactive) | 27.8 µM (inactive) | 96.6 µM (inactive) | > 100 µM (inactive) | 76.7 µM (inactive) | 74.8 µM (inactive) | > 100 µM (inactive) | 42.3 µM (inactive)
CC12CCC[C@@](C)(C(=O)OC3OC(CO)C(O)C(O)C3O)[C@H]1CCC13CC4CC(OC4(CO)[C@H]1O)[C@@H]23 (stereo partly drawn) | > 100 µM (inactive) | > 100 µM (inactive) | > 100 µM (inactive) | > 100 µM (inactive) | > 100 µM (inactive) | > 100 µM (inactive) | > 100 µM (inactive) | 14.5 µM (inactive) | > 100 µM (inactive) | > 100 µM (inactive) | > 100 µM (inactive) | > 100 µM (inactive) | > 100 µM (inactive) | > 100 µM (inactive) | > 100 µM (inactive) | > 100 µM (inactive) | > 100 µM (inactive) | > 100 µM (inactive) |  | > 100 µM (inactive)
NC(=O)c1c2c(cc3c(=O)c4ccccc4[nH]c13)CCCC2 | > 100 µM (inactive) | > 100 µM (inactive) | > 100 µM (inactive) | > 93.3 µM (inactive) | > 46.8 µM (inactive) | > 100 µM (inactive) | > 100 µM (inactive) | > 100 µM (inactive) | > 100 µM (inactive) | > 100 µM (inactive) | > 65.9 µM (inactive) | > 100 µM (inactive) | > 100 µM (inactive) | > 100 µM (inactive) | > 100 µM (inactive) | > 100 µM (inactive) | > 73.6 µM (inactive) | > 100 µM (inactive) |  | > 100 µM (inactive)
N#CC(C(=O)CCC(=O)C(C#N)c1ccccc1)c1ccccc1 (stereo not drawn) | > 100 µM (inactive) | > 100 µM (inactive) | > 100 µM (inactive) | > 100 µM (inactive) | > 100 µM (inactive) | > 100 µM (inactive) | > 100 µM (inactive) | > 100 µM (inactive) | > 100 µM (inactive) | > 100 µM (inactive) | > 100 µM (inactive) | > 100 µM (inactive) | > 100 µM (inactive) | > 100 µM (inactive) | > 100 µM (inactive) | > 100 µM (inactive) | > 100 µM (inactive) | > 100 µM (inactive) |  | > 100 µM (inactive)
COC(=O)/C(=N\NC(N)=O)C(C(=O)C(=O)Nc1ccccc1OC)c1nc2ccc([N+](=O)[O-])cc2nc1O (stereo not drawn) | > 100 µM (inactive) | > 100 µM (inactive) | > 100 µM (inactive) | > 100 µM (inactive) | > 100 µM (inactive) | > 100 µM (inactive) | > 100 µM (inactive) | > 100 µM (inactive) | 58.1 µM (inactive) | > 100 µM (inactive) | > 100 µM (inactive) | > 100 µM (inactive) | > 100 µM (inactive) | 53.1 µM (inactive) | > 100 µM (inactive) | > 100 µM (inactive) | > 100 µM (inactive) | > 100 µM (inactive) |  | > 100 µM (inactive)
CN(C)CCNc1ccc2ncn3c4ccccc4c(=O)c1c23 | 6.93 µM (inactive) | 3.02 µM (inactive) | 1.38 µM (inactive) | 3.32 µM (inactive) | 2.84 µM (inactive) |  | 2.47 µM (inactive) | 0.826 µM (active) | 2.44 µM (inactive) | 2.3 µM (inactive) | 2.99 µM (inactive) | 0.805 µM (active) | 2.93 µM (inactive) | 2.42 µM (inactive) | 2.26 µM (inactive) | 1.66 µM (inactive) | 2.34 µM (inactive) | 1.91 µM (inactive) |  | 2.74 µM (inactive)
O=S(=O)(O)SC/C=C\CSS(=O)(=O)O | > 100 µM (inactive) | 31.5 µM (inactive) | 42.3 µM (inactive) | > 100 µM (inactive) | > 100 µM (inactive) | > 100 µM (inactive) | 31.3 µM (inactive) | > 100 µM (inactive) | 21.4 µM (inactive) | > 100 µM (inactive) |  | 42.9 µM (inactive) | > 100 µM (inactive) | > 100 µM (inactive) | > 100 µM (inactive) | > 100 µM (inactive) | > 100 µM (inactive) | 48.9 µM (inactive) |  | > 100 µM (inactive)
NC(=S)N/N=C1\CCCC\C1=C/c1ccccc1 | > 100 µM (inactive) | 40.5 µM (inactive) | 20 µM (inactive) | > 100 µM (inactive) | 15 µM (inactive) | 23.8 µM (inactive) | > 100 µM (inactive) | 72.6 µM (inactive) | 45.1 µM (inactive) | 47.2 µM (inactive) | 73.3 µM (inactive) | > 100 µM (inactive) | 39.9 µM (inactive) | 25.2 µM (inactive) |  | 12.8 µM (inactive) | 60.8 µM (inactive) | 54 µM (inactive) |  | 
COC(=O)C1C(=O)N(CCc2c[nH]c3ccccc23)C[C@@H]2CCC(=O)C[C@H]12 (stereo partly drawn) | > 100 µM (inactive) | > 100 µM (inactive) | > 100 µM (inactive) | > 100 µM (inactive) | > 100 µM (inactive) | > 100 µM (inactive) | > 100 µM (inactive) | > 100 µM (inactive) | > 100 µM (inactive) | > 100 µM (inactive) | > 100 µM (inactive) | > 100 µM (inactive) | > 100 µM (inactive) | > 100 µM (inactive) | > 100 µM (inactive) |  | > 100 µM (inactive) | > 100 µM (inactive) |  | > 100 µM (inactive)
COC(=O)C(Cc1nc2ccccc2nc1O)C(NO)C(=O)Nc1c(Cl)cc([N+](=O)[O-])cc1Cl (stereo not drawn) | 21.4 µM (inactive) | 31.3 µM (inactive) | 35.2 µM (inactive) | 22.4 µM (inactive) | 34.7 µM (inactive) | 16.5 µM (inactive) | 27.7 µM (inactive) |  | 33.7 µM (inactive) | 5.56 µM (inactive) | 32.1 µM (inactive) | 20.7 µM (inactive) |  | 40.8 µM (inactive) | 27.6 µM (inactive) |  | 47.5 µM (inactive) | 32.8 µM (inactive) |  | 18 µM (inactive)
O=C1CC(c2ccc(Cl)cc2)=Nc2ccccc2N1 | 79.6 µM (inactive) | 20.7 µM (inactive) | > 100 µM (inactive) | 65.8 µM (inactive) |  | 29.9 µM (inactive) | 86.7 µM (inactive) | 18.8 µM (inactive) | > 100 µM (inactive) | 26.4 µM (inactive) | > 100 µM (inactive) | 34.7 µM (inactive) | 43.3 µM (inactive) | > 100 µM (inactive) | > 100 µM (inactive) | > 100 µM (inactive) | > 100 µM (inactive) | > 100 µM (inactive) |  | > 100 µM (inactive)
C[N+]1=C(c2cccnc2/C=N/O)OCC1(C)C | > 100 µM (inactive) | > 100 µM (inactive) | > 100 µM (inactive) | > 100 µM (inactive) |  | > 100 µM (inactive) | > 100 µM (inactive) | > 100 µM (inactive) | > 100 µM (inactive) | > 100 µM (inactive) | > 100 µM (inactive) | > 100 µM (inactive) | > 100 µM (inactive) | > 100 µM (inactive) | > 100 µM (inactive) | > 100 µM (inactive) | > 100 µM (inactive) | > 100 µM (inactive) |  | > 100 µM (inactive)
CCOC(=O)C1N(S(=O)(=O)c2ccc(C)cc2)CCC12c1ccccc1N(C(C)=O)C2C(/C=C/C(=O)OC)=C/C(=O)OC (stereo not drawn) | > 100 µM (inactive) | > 100 µM (inactive) | > 100 µM (inactive) | > 100 µM (inactive) | 62.5 µM (inactive) | > 100 µM (inactive) | > 100 µM (inactive) | > 100 µM (inactive) | > 100 µM (inactive) | 44.1 µM (inactive) |  | > 100 µM (inactive) | > 100 µM (inactive) | > 100 µM (inactive) | > 100 µM (inactive) | > 100 µM (inactive) | > 100 µM (inactive) | > 100 µM (inactive) |  | > 100 µM (inactive)
CCOc1ccccc1NC(=O)C(=O)CC(=O)c1c(C)[n+]([O-])c2ccccc2[n+]1[O-] | > 100 µM (inactive) | > 100 µM (inactive) | > 100 µM (inactive) | 65 µM (inactive) | > 100 µM (inactive) | > 100 µM (inactive) | > 100 µM (inactive) | > 100 µM (inactive) | 83.9 µM (inactive) | > 100 µM (inactive) | > 100 µM (inactive) | 81.7 µM (inactive) | > 100 µM (inactive) | > 100 µM (inactive) | > 100 µM (inactive) | > 100 µM (inactive) | > 100 µM (inactive) | > 100 µM (inactive) |  | 43.9 µM (inactive)

From ChEMBL document CHEMBL1201862, “PubChem BioAssay data set” (2004)
